Measured values: article PMC10498667 (Chemical Science, 2023)

Tests used:
[1] = system: human neuroblastoma SH-SY5Y (5Y) cells; assay: Cellular ROS detection assay (prooxidant activity); type: cell-based
Description: Cellular ROS Detection Assay. The prooxidant activity of flavonoids in living cells was measured by a cellular ROS detection assay kit (Abcam) following the manufacturer ’s protocol. The human neuroblastoma 5Y cells were maintained in media containing 50% v/v Dulbecco's Modified Eagle Medium and 50% v/v Nutrient Mixture F12 (phenol red-free DMEM/F12; GIBCO, Grand Island, NY, USA) supplemented with 10% v/v fetal bovine serum (GIBCO) and 100 U/mL penicillin-streptomycin (GIBCO). The cells were grown and maintained at 37 °C in a humidified atmosphere with 5% CO2. Cells were seeded in a 96-well plate (50,000 cells/100 µL). After 24 h incubation, a ROS-staining working solution (100 µL) was added to each well and the plate was incubated for 1 h at 37 °C. Cells were then treated with the samples {[flavonoid] = 0.01, 0.1, 0.5, and 1 mM (1% v/v DMSO)}. The cellular ROS levels upon the treatment of samples were measured based on the fluorescence intensity (lex/lem = 520/605 nm) of the wells that was detected after 2 h incubation and calculated, relative to that of the cells containing an equivalent amount of DMSO.
All experiments were performed in triplicate.

[2] = target: T1, Aβ42 (Homo sapiens, UniProt P05067); assay: Additional disaggregation experiments (preformed aggregates or seeds with Aβ monomers); type: biochemical; settings: metal-free Aβ42 and metal–Aβ42; flavonoid 50 μM
T1 construct: purchased Peptide Institute, Inc. (Osaka, Japan)
Description: To probe the secondary nucleation of disassembled Aβ aggregates induced by the flavonoids on Aβ monomers, additional disaggregation experiments were conducted by incubating preformed aggregates of metal-free and metal-treated Aβ or their seeds with Aβ monomers. […] These indications describe the significance of three hydroxyl groups on the A ring in the flavonoid structure to impact the aggregation of metal-free Aβ and metal–Aβ. […]
(§1) Ab Aggregation Experiments. Ab was dissolved in ammonium hydroxide [1% w/w NH4OH (aq)] and the resulting solution was aliquoted, lyophilized overnight, and stored at –80 °C. A stock solution of Ab was then prepared by dissolving the lyophilized peptide with NH4OH (1% w/w, aq; 10 µL) and diluting with ddH2O. All Ab samples were prepared following previously reported procedures.21,22 The concentration of the peptide solution was determined by measuring its […]
solution (20 mM HEPES, pH 7.4, 150 mM NaCl) was used for preparing Ab samples. […]
For the disaggregation studies, Ab (25 µM) was incubated with and without CuCl2 or ZnCl2 (25 µM) for 24 h at 37 °C with constant agitation to generate preformed Ab aggregates. The resultant Ab aggregates were then treated with flavonoids (50 µM) and incubated for additional 24 h with constant agitation. For the additional disaggregation experiments, preformed Ab42 aggregates (25 µM) or Ab42 seeds (10% v/v) with or without metal ions (25 µM for CuCl2 and ZnCl2) were incubated with flavonoids (50 µM) for 24 h with constant agitation. The resultant Ab aggregates were then treated with freshly prepared Ab42 […]
(§2) (25 µM) and incubated for additional 24 h with constant agitation.
(§3) Gel/Western Blot. The resultant Ab species from the aggregation experiments were analyzed by gel/Western blot using an anti-Ab antibody (6E10, Covance, Princeton, NJ, USA).21,22 Each sample (10 µL) was separated on a 10–20% tricine gel (Invitrogen). Following separation, the proteins were transferred onto nitrocellulose membranes and blocked with bovine serum albumin (BSA, 3% w/v; Sigma-Aldrich) in Tris-buffered saline (TBS) containing 0.1% v/v Tween-20 (Sigma-Aldrich) (TBS-T) for 4 h at room temperature or overnight at 4 °C. The membranes were incubated with 6E10 (1:2,000) in the solution of BSA (2% w/v in TBS-T) for 4 h at room temperature. […] A homemade ECL kit21–23 was used to visualize gel/Western blots on a ChemiDoc MP Imaging System (Bio-Rad).
TEM. […]
Cu(II)-binding Studies. The interaction of flavonoids with Cu(II) was detected by Abs spectroscopy in 20 mM HEPES, pH 7.4, 150 mM NaCl. […] The mixture solution was allowed to equilibrate for 5 min after the addition of CuCl2 at room temperature before the spectra were recorded. […]

[3] = target: T2, Aβ40 (Homo sapiens, UniProt P05067); assay: Aβ40 aggregation inhibition experiments (gel/western blot, TEM); type: biochemical; settings: flavonoid 50 μM, 24 h
T2 construct: Ab40 ([…]-; purchased Peptide Institute, Inc. (Osaka, Japan)
T2 sequence (P05067 672-711 limits assumed): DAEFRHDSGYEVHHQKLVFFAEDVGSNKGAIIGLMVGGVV
Description: To verify whether a series of nine flavonoids can modulate the aggregation of Aβ with and without metal ions, the molecular weight (MW) distribution and morphology of the resultant Aβ species were determined by gel electrophoresis with western blotting (gel/western blot) using an anti-Aβ antibody (6E10) and transmission electron microscopy (TEM), respectively. Two types of experiments were carried out employing two major Aβ isoforms, i.e., Aβ42 and Aβ40:[25] (i) inhibition studies to identify the effect of 1–5, 1a, 1b, 4a, and 4b on the formation of Aβ aggregates; (ii) disaggregation studies to evaluate if the flavonoids with reactivities towards Aβ aggregation in inhibition studies can disassemble preformed Aβ aggregates or modulate their further aggregation, as illustrated in Fig. 4 and S5–S9. ^† Moreover, the solutions containing the flavonoids and Cu(II) were probed by electronic absorption (Abs) spectroscopy to monitor their metal binding. […] As expected, no Abs change of 1a and 4a composed of methoxy groups on the A ring was detected by addition of Cu(II). […]
as §1
solution (20 mM HEPES, pH 7.4, 150 mM NaCl) was used for preparing Ab samples. For the inhibition studies, flavonoids (final concentration, 50 µM; 1% v/v DMSO) were added to the samples of Ab (25 µM) in the absence and presence of CuCl2 or ZnCl2 (25 µM) followed by incubation for 24 h at 37 °C with constant agitation. For the disaggregation studies, Ab (25 µM) was incubated with and without CuCl2 or ZnCl2 (25 µM) for 24 h at 37 °C with constant agitation to generate preformed Ab aggregates. The resultant Ab aggregates were then treated with flavonoids (50 µM) and incubated for additional 24 h with constant agitation. For the additional disaggregation experiments, preformed Ab42 aggregates (25 µM) or Ab42 seeds (10% v/v) with or without metal ions (25 µM for CuCl2 and ZnCl2) were incubated with flavonoids (50 µM) for 24 h with constant agitation. The resultant Ab aggregates were then treated with freshly prepared Ab42 […]
as §2, §3
TEM. Samples for TEM were prepared following previously reported methods.22,24 Glow-discharged grids (Formvar/Carbon 300-mesh; Electron Microscopy Sciences, Hatfield, PA, USA) were treated with Ab samples (25 µM; 7.5 µL) for 2 min at room temperature. Excess sample was removed using filter paper followed by washing with ddH2O (3x). Each grid incubated with uranyl […]

[4] = Solubility in EtOH (TEAC conditions); type: physicochemical; settings: under TEAC experimental conditions

T1 sequence (P05067 672-713 limits assumed): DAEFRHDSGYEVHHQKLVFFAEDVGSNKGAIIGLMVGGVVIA

Row | SMILES | cellular ROS concentration / prooxidative activity ([1]; 0.01 and 0.1 mM flavonoid) | cellular ROS concentration / prooxidative activity ([1]; 0.5 and 1 mM flavonoid) | MW distribution after incubating treated preformed aggregates or seeds with Aβ monomers (secondary nucleation) [2] | morphology of resultant aggregates (TEM) ([3]; Cu(II)–Aβ40) | MW distribution of resultant species (gel/western blot) ([3]; Cu(II)–Aβ40 and Zn(II)–Aβ40) | morphology of resultant aggregates (TEM) ([3]; Zn(II)–Aβ40) | MW distribution of resultant species (gel/western blot) ([3]; metal-free Aβ40) | morphology of resultant aggregates (TEM) ([3]; metal-free Aβ40) | solubility in ethanol (EtOH) [4]
1 | O=c1c(-c2ccccc2)coc2cc(O)c(O)c(O)c12 [4b, 5,6,7-trihydroxyisoflavone] | no elevation of the cellular ROS concentration | the prooxidative activity was observed | notable variations in the MW distribution | both amorphous and fibrillary aggregates | diverse MW distribution | a bunch of fibrillary species with chopped filamentous aggregates | reduced | shorter and thinner fibrils | 
2 | O=c1cc(-c2ccccc2)oc2cc(O)cc(O)c12 [compound 1, chrysin] |  |  |  |  |  |  |  |  | limited solubility
3 | O=c1cc(-c2ccccc2)oc2ccc(O)c(O)c12 [compound 3, 5,6-dihydroxyflavone] |  |  | reactivity specifically towards metal–Aβ42 species | both amorphous and fibrillary aggregates |  |  |  |  | 
4 | O=c1cc(-c2ccccc2)oc2cc(O)c(O)c(O)c12 [compound 4, baicalein] |  |  | notable variations in the MW distribution | both amorphous and fibrillary aggregates |  |  | reduced | shorter and thinner fibrils | 
5 | O=c1cc(-c2ccccc2)oc2c(Cl)c(O)c(O)c(O)c12 [compound 5, 8-chlorobaicalein] |  |  | notable variations in the MW distribution | chopped filamentous Cu(II)–Aβ40 aggregates |  |  | increased the band intensity | shorter and thinner fibrils | 
6 | O=c1c(-c2ccc(O)c(O)c2)coc2cc(O)c(O)c(O)c12 [compound 6, 3-(3,4-dihydroxyphenyl)-5,6,7-trihydroxy-4H-chromen-4-one] | No prooxidative activity | increase in the amount of cellular ROS |  |  |  |  |  |  | 
